Source: patent publication US7435438B1, “Disinfectant and method of use” (Pure BioScience, priority 2003, dated 2008)

Legend:
[1] = test system: dermal lesions both contaminated and infected with gram negative and gram positive bacteria
[2] = test system: Poliovirus type 2 ATCC VR-1002, Strain Lansing
[3] = test system: Influenza A ATCC VR-544, Hong Kong Strain
[4] = test system: Listeria monocytogenes ATCC 19111; conditions: 30 ppm
[5] = test system: Enterococcus faecium ATCC 6569
[6] = test system: Pseudomonas aeruginosa ATCC 15422
total bacteria present = conditions: approximately 5 ppm for 5 seconds, drip dry 10 seconds, rinse in 0.1 ppm for 5 seconds; fruits, vegetables, fish and shrimp
[7] = test system: Staphylococcus aureus ATCC 6538
[8] = test system: HIV type1, Strain HTLV = IIIB
[9] = test system: Salmonella cholerasuis ATCC 10708
[10] = test system: Staphylococcus aureus (MRSA) ATCC 700698; conditions: 30 ppm
[11] = test system: pathogenic bacterial populations, biofilms
[12] = test system: Proprionibacterium acnes ATCC 6921; conditions: 30 ppm
[13] = test system: Herpes simplex type I ATCC VR-733, Strain F(1)
[14] = test system: Rhinovirus R37 ATCC VR-1147, Strain 151-1
[15] = test system: Enterococcus facium (VRE) ATCC 700221; conditions: 30 ppm
[16] = test system: heterotrophic bacteria (HBC) in biofilm and planktonic phases
[17] = test system: Trichophyton Mentagrophytes ATCC 9533; conditions: 30 ppm
[18] = test system: listeria monocytogenes ATCC 11543
[19] = test system: Legionella in biofilm and planktonic samples
[20] = equine, observed repeatedly during the study

## silver dihydrogen citrate
E. coli ATCC 11229
  effectiveness as hard surface disinfectant with direct food contact: effective
[1]; equine
  efficacy for irrigating deep wounds and abscesses: very efficacious
  granulation / fibrosis: promote healthy granulation without excessive fibrosis
[1]; [20]
  healing time: Decreased healing time
  scar formation: reduction in scar formation
[1]; equine, wet dressings or spray
  performance on dermal lesions compared to available disinfectant products on the market: superior performance
[1]; flushed with the disinfectant
  healing and draining of deep wounds closed with drains: rapid healing time and reduced draining
[1]; preliminary results
  uterine flush for bacterial and/or fungal/yeast infection: very promising
[2]
  KILL TIME: 10-minute
  effectiveness as hard surface disinfectant with direct food contact: effective
L. pneumophila
  result of ASTM E645-97 test: passed
[3]
  KILL TIME: 10-minute
  effectiveness as hard surface disinfectant with direct food contact: effective
[4]
  KILL TIME: 30-seconds
[5]
  effectiveness as hard surface disinfectant with direct food contact: effective
[6]
  KILL TIME: 30-seconds
  effectiveness as hard surface disinfectant with direct food contact: effective
Total bacteria present
  total bacteria present eliminated: 99.99%
[7]
  KILL TIME: 30-seconds
  effectiveness as hard surface disinfectant with direct food contact: effective
[8]
  KILL TIME: 30-second
  effectiveness as hard surface disinfectant with direct food contact: effective
[9]
  KILL TIME: 30-seconds
  effectiveness as hard surface disinfectant with direct food contact: effective
[10]
  KILL TIME: 2-minute
[11]
  mortality in shrimp raising tanks: decreasing
[11]; shrimp raising tanks
  pathogenic bacterial populations, biofilms: significantly reducing
[12]
  KILL TIME: 15-seconds
[13]
  KILL TIME: 1-minute
  effectiveness as hard surface disinfectant with direct food contact: effective
[14]
  KILL TIME: 10-minute
  effectiveness as hard surface disinfectant with direct food contact: effective
[15]
  KILL TIME: 2-minute
SARS
  effectiveness as hard surface disinfectant with direct food contact: will be effective
[16]
  reduction of heterotrophic bacteria: did not significantly reduce
[17]
  exposure after which the fungus is killed: 10 min
E. coli 0157 ATCC 43888
  KILL TIME: 2-minute
  effectiveness as hard surface disinfectant with direct food contact: effective
[18]
  effectiveness as hard surface disinfectant with direct food contact: effective
[19]
  killing of Legionella (in words): killed Legionella
